The source of these data is patent US5543517A, “Substituted bicyclic phosphoramides and derivatives thereof” (The DuPont Merck Pharmaceutical Company, priority 1994, dated 1996).

Values after ≈ are worked out from the molar mass of the structure shown. Like-named read-outs stand apart in the source and are kept apart here. A value given as a limit tells only on which side of the number the result lay.

Assay [1] concerns HIV-1 (RF). Kind of assay: HIV RNA assay (microplate based compound evaluation in HIV-1 infected MT-2 cells). The class given is cell-based. The procedure:
DNA Plasmids and In Vitro RNA Transcripts
Plasmid pDAB 72 containing both gag and pol sequences of BH10 (bp 113-1816) cloned into PTZ 19R was prepared according to Erickson-Viitanen et al. AIDS Research and Human Retroviruses 1989, 5, 577. The plasmid was linearized with Bam HI prior to the generation of in vitro RNA transcripts using the Riboprobe Gemini system II kit (Promega) with T7 RNA polymerase. Synthesized RNA was purified by treatment with RNase free DNAse (Promega), phenol-chloroform extraction, and ethanol precipitation. RNA transcripts were dissolved in water, and stored at -70° C. The concentration of RNA was determined from the A260.
Biotinylated capture probes were purified by HPLC after synthesis on an Applied Biosystems (Foster City, Calif.) DNA synthesizer by addition of biotin to the 5' terminal end of the oligonucleotide, using the biotinphosphoramidite reagent of Cocuzza, Tet. Lett. 1989, 30, 6287. The gag biotinylated capture probe (5-biotin-[…] 3') was complementary to nucleotides 889-912 of HXB2 and the pol biotinylated capture probe (5'-biotin --[…] 3') was complementary to nucleotides 2374-2395 of HXB2. Alkaline phosphatase conjugated oligonucleotides used as reporter probes were prepared by Syngene (San Diego, Calif.). The pol reporter probe (5' […] 3') was complementary to nucleotides 2403-2425 of HXB2. The gag reporter probe (5' […] 3') was complementary to nucleotides 950-973 of HXB2. All nucleotide positions are those of the GenBank Genetic Sequence Data Bank as accessed through the Genetics Computer Group Sequence Analysis Software Package (Devereau Nucleic Acids Research 1984, 12, 387). The reporter probes were prepared as 0.5 μM stocks in 2×SSC(0.3M NaCl, 0.03M sodium citrate), 0.05M Tris pH 8.8, 1 mg/mL BSA. The biotinylated capture probes were prepared as 100 μM stocks in water.
Streptavidin Coated Plates
Nunc-immunomodule microtiter plate strips were coated by addition of 200 μL of streptavidin (30 μg/mL, Scripps, La Jolla, Calif.) in freshly prepared 10 mM sodium carbonate (pH 9.6). Plates were incubated overnight at 4° C. Streptavidin solution was aspirated from the wells and a blocking buffer composed of phosphate buffered saline (PBS), 20 mg/mL bovine serum albumin (crystalline, nuclease and protease free, Calbiochem) and 100 mg/mL lactose (Sigma) was added to the plates for 3 hrs at room temperature. Blocking buffer was removed from the wells, which were allowed to dry overnight at room temperature and subsequently stored at 4° C. in zip lock bags with desiccant. For the majority of the compound evaluation experiments, streptavidin coated plates were obtained from Du Pont Biotechnology Systems (Boston, Mass.).
MT-2, CEM, and H9 cells were maintained in RPMI 1640 supplemented with 5% fetal calf serum (FCS), 2 mM L-glutamine and 50 μg/mL gentamycin, all from Gibco. Laboratory strains of HIV-1 (RF, MN and IIIB) were propagated in H9 cells in the same medium. Virus stocks were prepared approximately 1 month after acute infection of H9 cells by clarification of the tissue culture medium and storage of aliquots at -70° C. Infectious titers of HIV-1 (RF) stocks were 1-3×10^7 PFU (plaque forming units)/mL as measured by plaque assay on MT-2 cells (see below). Each aliquot of virus stock used for infection was thawed only once. In some cases, infected H9 cells were shifted to Dulbecco's modified Eagle's medium 3-10 days before collection of virus in order to generate virus stocks in medium with low biotin content. Clinical isolates of HIV that had been passaged once in MT-2 cells were used to infect fresh MT-2 cells in RPMI medium. Three days after infection, cells were pelleted, resuspended and culture continued in Dulbecco's modified Eagle's medium as above. Virus stocks of clinical isolates were prepared 10-15 days after infection when cytopathic effects were apparent in the culture. […]

For assay [2], the target named is T1, HIV-1 protease (HIV-1 M:B_HXB2R, UniProt P04585).
T1 construct: cut from Gag-Pol polyprotein
As to the kind of experiment: HIV protease inhibition assay (HPLC method). The assay is classed as biochemical. The following applies: pH 5.5, 30° C., 1 hr. The method, then:
The Ki values in TABLE 1 were determined using the assay conditions described below under HIV Protease Inhibition Assay (HPLC Method). The Ki values are indicated as follows: +++=<10 nM; ++=10 nM to 1 μM; +=>[…].
HIV PROTEASE INHIBITION ASSAY (HPLC METHOD)
Protease: Inclusion bodies of E. coli harboring plasmid T1718R with a synthetic gene coding for a single-chain tethered dimer of HIV protease were prepared as described in Cheng et al. Proc. Natl. Acad. Sci. USA 1990, 87, 9660. Active protease was prepared as described therein by extraction with 67% acetic acid, dilution 33-fold with water, dialysis against water and then against a "refolding buffer" comprising 20 mM MES, 1 mM dithiothreitol and 10% glycerol, pH 5.5. Protease was stored as a stock preparation at 10 uM in refolding buffer.
Substrate: Peptide of the sequence aminobenzoyl-Ala-Thr-His-Gln-Val-Tyr-Phe(NO2)-Val-Arg-Lys-Ala containing p-nitrophenylalanine (Phe(NO2)), was prepared by solid phase synthesis as previously described (Cheng et al. Proc. Natl. Acad. Sci. USA 1990, 87, 9660). Stock solutions of 2 mM substrate were prepared in DMSO.
Inhibitory compounds were dissolved in sufficient DMSO to make 3 mM stock solutions. All further dilutions were prepared in "assay buffer" comprising 1M NaCl, 50 mM MES, pH 5.5, 1 mM EDTA, 1 mM DTT and 20% glycerol.
Enzyme reaction: To a 2 mL screw-cap centrifuge tube were added 50 uL protease (final concentration 0.25 nM) and 0.1 mL inhibitor compound (final concentration 0.1-12,500 nM). After 15 min preincubation at room temperature, the reaction was started by the addition of 0.05 mL substrate (final concentration 5 uM). Incubation was carried out at 30° C. for 1 hr. The reaction was stopped by addition of 1 mL of 0.1M ammonium hydroxide solution.
HPLC measurement of product formation: The product (aminobenzoyl-Ala-Thr-His-Gln-Val-Tyr) was separated from substrate on a Pharmacia MonoQ anion exchange column. The injection volume was 0.2 mL. The mobile phases comprised: solution A (20 mM tris HCl, pH 9.0, 0.02% sodium azide, 10% acetonitrile), and solution B (20 mM tris HCl, pH 9.0, 0.02% sodium azide, 0.5M ammonium formate, 10% acetonitrile). The mobile phases were pumped at 1 mL/min, with a gradient from 0 to 30% B in 5 min, 100% B for 4 min to wash the column, and a re-equilibration wash with A for 4 min. The retention time of the product was 3.6 min. Detection with a Shimadzu model RF535 fluorescence monitor was at 330 nm (excitation) and 430 nm (emission). The Ki was calculated from the formula Ki=I/(((Km+S-FA*S)/(FA*Km))-1) where I=inhibitor concentration, S=substrate concentration, FA=fractional activity=cm peak height with inhibitor/cm peak height without inhibitor and Km=Michaelis constant=20 uM.

The mark [3] stands for this setting: Human immunodeficiency virus 1, MT2, 72 h, HIV RNA assay, HIV-1 (RF) infected MT-2 cells, 3 days, 37° C., read-out: IC90.

Take `O=P12O[C@H]([C@@H](O)[C@@H](Cc3ccccc3)N1Cc1ccccc1)[C@@H](Cc1ccccc1)N2Cc1ccccc1` [Example 4E, (3-endo,4-endo,6-exo)-2,3,6,7-tetrakis (phenylmethyl)-8-oxa-2,7-diaza-1-phosphabicyclo[3.2.1]octan-4-ol 1-oxide]: the IC90 in assay [1] (setting [3]) fell in the range of 10 to 100 µg/mL (≈ 19.1 to 191 µM). Also, the inhibitory constant (Ki) in assay [2] fell in the range of 10 to 1000 nM.
On the same counts, the results for `CNc1cccc(CN2[C@H](Cc3ccccc3)[C@H](O)[C@H]3OP2(=O)N(Cc2cccc(NC)c2)[C@@H]3Cc2ccccc2)c1` [Example 6D] are less than 10 µg/mL and 10 to 1000 nM.
On the same counts, the results for `O=P12O[C@H]([C@@H](O)[C@@H](Cc3ccccc3)N1CC1CC1)[C@@H](Cc1ccccc1)N2CC1CC1` [Example 1F, (3-endo,4-endo,6-exo)-2,7-Bis(cyclopropylmethyl)-3,6-bis(phenylmethyl)-8-oxa-2,7-diaza-1-phosphabicyclo [3.2.1]octan-4-ol 1-oxide] are 10 to 100 µg/mL (≈ 22.1 to 221 µM) and 10 to 1000 nM.
For the compound `CCCCN1[C@H](Cc2ccccc2)[C@H](O)[C@H]2OP1(=O)N(CCCC)[C@@H]2Cc1ccccc1` [Example 3C, (3-endo,4-endo,6-exo)-2,7-Bis(butyl)-3,6-bis(phenylmethyl)-8-oxa-2,7-diaza-1-phosphabicyclo[3.2.1]octan-4-ol 1-oxide], the IC90 in assay [1] (setting [3]) is more than 50 µg/mL. In assay [2], this compound registered a Ki of 10 to 1000 nM.
On to `Nc1ccn([C@H]2CC[C@@H](CO)O2)c(=O)n1` [ddC, dideoxycytidine, reference compound], for which, in assay [1] (Human immunodeficiency virus 1, MT2, HIV-1 (RF), MT-2 cells, virus dilution selected to give this value, read-out: IC90 value (concentration of compound required to reduce the HIV RNA level by 90%)), the IC90 is 0.2 µg/mL (≈ 0.947 µM).
Turning to `O=P12O[C@H]([C@@H](O)[C@@H](Cc3ccccc3)N1Cc1ccc(O)cc1)[C@@H](Cc1ccccc1)N2Cc1ccc(O)cc1` [Example 7D, (3-endo,4-endo,6-exo)-2,7-bis(4-hydroxyphenylmethyl)-3,6-bis(phenylmethyl)-8-oxa-2,7-diaza-1-phosphabicyclo[3.2.1]octan-4-ol 1-oxide], the IC90 in assay [1] (setting [3]) is less than 10 µg/mL. This compound also displayed an inhibition constant Ki in assay [2] of less than 10 nM.
With `O=P12O[C@H]([C@@H](O)[C@@H](Cc3ccccc3)N1Cc1cccc(CO)c1)[C@@H](Cc1ccccc1)N2Cc1cccc(CO)c1` [Example 8C, (3-endo,4-endo,6-exo)-2,7-Bis(3-(hydroxymethyl)phenylmethyl)-3,6-bis(phenylmethyl)-8-oxa-2,7-diaza-1-phosphabicyclo[3.2.1]octan-4-ol 1-oxide], the IC90 in assay [1] (setting [3]) was less than 10 µg/mL. The compound also showed an inhibition constant Ki in assay [2] of less than 10 nM.
With `O=P12O[C@H]([C@@H](O)[C@@H](Cc3ccccc3)N1Cc1ccc3ccccc3c1)[C@@H](Cc1ccccc1)N2Cc1ccc2ccccc2c1` [Example 2C, (3-endo,4-endo,6-exo)-2,7-Bis(2-naphthalenylmethyl)-3,6-bis(phenylmethyl)-8-oxa-2,7-diaza-1-phosphabicyclo[3.2.1]octan-4-ol 1-oxide], the IC90 in assay [1] (setting [3]) was more than 50 µg/mL. The compound further had an inhibitory constant (Ki) in assay [2] of 10 to 1000 nM.

Broadly, the Ki is a dissociation constant, usually derived from enzyme kinetics or from competition with a known ligand. Read a high Ki as weaker binding.
